Experimental data: PMC6017046, “Synergistic Promotion on Tyrosinase Inhibition by Antioxidants” (Molecules : A Journal of Synthetic Chemistry and Natural …, 2018)

What was measured:
[1] = DPPH free radical-scavenging capacity assay; conditions: 0.1 mmol/L DPPH, 30 min, absorbance 517 nm; read-out: IC50 of antioxidant solutions (DPPH scavenging / DPPH clearance rate)
Procedure: The DPPH free radical-scavenging capacity of the samples are determined according to the method of a previous study with slight modifications. Samples (100l) of various concentrations are added to 100 µL of 0.1 mmol/L DPPH solution in methanol at room temperature. After 30 min, the absorbance is measured at 517 nm with a UV-visible spectrophotometer (MAPADA UV-6100PCS, Shanghai, China). The percentage of free radical (DPPH) scavenging activity (I%) is calculated according to following formula: I%=ODck−ODsample/ODck×100 where ODck is the absorbance of the control reaction, which involves all the reagents except the test compound, and ODsample is the absorbance of the test compound.

Mushroom tyrosinase [2] = biological target: T1, Mushroom tyrosinase (Agaricus bisporus, UniProt C7FF04); assay: Mushroom tyrosinase inhibitory assay, L-tyrosine as substrate; assay type: biochemical
Procedure: Inhibitory activity against tyrosinase is examined through an improved spectrophotometric method using L-DOPA and L-tyrosine as substrates. […] The reaction mixture is incubated at 37 °C for 15 min. Mushroom tyrosinase (40 µL, 200 units/mL) is added to the reaction mixture and incubated at 30 °C for 20 min.
(§1) Dopachrome formation is monitored at 475 nm with a UV-visible spectrophotometer (MAPADA UV-6100PCS). The rate of the inhibition of tyrosinase activity (I%) is determined according to the following formula: I%=(A2−A1)−(B2−B1)/(A2−A1)×100 where A1 and A2 are the absorbance values of the blank at 475 nm at 0 min and 20 min, respectively, and B1 and B2 is the absorbance levels of the test sample at 475 nm at 0 min and 20 min, respectively.
The 50% inhibition concentration (IC50) value is determined with SPSS 17.0 statistical software (International Business Machines Corporatio, Armonk, NY, USA). All experiments are performed at least in triplicate. Data are analyzed by unpaired Student’s t-test, followed by Dunnett’s multiple comparison test (SPSS version 17.0). P values lower than 0.05 are considered significant. The interactions are calculated using combination index (CI) according to [22]: CI=IC50amix/IC50a+IC50bmix/IC50b where IC50a and IC50b are obtained from pure compounds, and IC50amix is the concentration of individual compound in the mixture that cause 50% inhibition. Obtained CI values equal, smaller, or greater than 1 indicate an additive, synergistic, or antagonistic effect, respectively.

Mushroom tyrosinase [3] = biological target: T1, Mushroom tyrosinase; conditions: ref 1 (GLA), ref 25 (OXYR), ref 26 (RES); cited from earlier work
Mushroom tyrosinase [4] = biological target: T1, Mushroom tyrosinase; assay: Mushroom tyrosinase inhibitory assay, L-DOPA as substrate; assay type: biochemical; conditions: read-out: IC50, tyrosinase activity, single compounds
Procedure: The reaction mixture is incubated at 37 °C for 15 min. Subsequently, 40 µL of 100 units/mL mushroom tyrosinase is added to the reaction mixtures and incubated at 37 °C for 20 min. […] The reaction mixture is incubated at 37 °C for 15 min. Subsequently, 40 µL of 5 mM L-DOPA is added to the reaction mixture and incubated at 30 °C for 20 min.
as §1
The 50% inhibition concentration (IC50) value is determined with SPSS 17.0 statistical software (International Business Machines Corporatio, Armonk, NY, USA). All experiments are performed at least in triplicate. Data are analyzed by unpaired Student’s t-test, followed by Dunnett’s multiple comparison test (SPSS version 17.0). P values lower than 0.05 are considered significant. […]

[5] = biological target: T2, tyrosinase activity of PIG1 cells (Homo sapiens, UniProt P14679); assay: Intracellular tyrosinase activity assay in UVB-irradiated PIG1 cells (L-DOPA oxidation); assay type: cell-based; conditions: 300 mJ/cm^2 UVB, 24 h, L-DOPA substrate, read-out: IC50, inhibition against tyrosinase activities
T2 construct: The intracellular tyrosinase activity of the PIG1 cells; host or cells: PIG1 immortalized human epidermal melanocytes
T2 sequence (P14679 19-529): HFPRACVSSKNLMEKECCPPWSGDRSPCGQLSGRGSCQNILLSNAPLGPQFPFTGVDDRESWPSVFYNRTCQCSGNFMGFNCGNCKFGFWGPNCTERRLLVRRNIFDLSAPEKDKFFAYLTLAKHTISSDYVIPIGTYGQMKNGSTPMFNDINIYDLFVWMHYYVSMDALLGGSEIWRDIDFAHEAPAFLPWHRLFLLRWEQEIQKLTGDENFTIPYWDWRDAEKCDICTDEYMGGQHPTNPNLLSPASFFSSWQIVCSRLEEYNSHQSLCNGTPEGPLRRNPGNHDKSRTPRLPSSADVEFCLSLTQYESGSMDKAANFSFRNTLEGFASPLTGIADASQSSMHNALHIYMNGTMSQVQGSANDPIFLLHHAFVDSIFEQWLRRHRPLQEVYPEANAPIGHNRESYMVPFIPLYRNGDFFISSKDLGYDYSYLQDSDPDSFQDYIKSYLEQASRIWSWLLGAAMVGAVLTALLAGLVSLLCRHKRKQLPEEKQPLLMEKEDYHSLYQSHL
Procedure: Immortalized human epidermal melanocyte cells from cell line PIG1 are obtained from Shanghai Guandao Bio-engineering Ltd. Co. (Shanghai, China). PIG1 cells are cultured at 37 °C with 5% CO2 in Medium 254 (#M-254-500, Thermo Fisher Scientific, New York, NY, USA) supplemented with human melanocyte growth supplement-2 (Thermo Fisher Scientific, New York, NY, USA) and 5% (v/v) fetal bovine serum (Thermo Fisher Scientific, New York, NY, USA).
The UVB source employed in this study is a Sigma SH4B light therapy device (Shanghai SIGMA High-tech Co., Ltd., Shanghai, China). […] UVB irradiation treatment is conducted when cells reached approximately 70% confluence according to the methods of Zeng et al. [19]. Before UVB irradiation, the supernatant is removed and replaced with PBS. […] The control group receives the same treatment as the UVB group but is not administered any drug.
PIG1 cells (1 × 10^4 cells/well) are seeded in 96-well plates and incubated for 24 h in CO2 until 70–80% confluence is reached. Subsequently, the complete medium is replaced with 100 µL of PBS, and the cells are exposed to 300 mJ/cm^2 UVB irradiation. […] The intracellular tyrosinase activity of the PIG1 cells are estimated by measuring the L-DOPA oxidation capacity according to the method of Rong et al. [21]. […] The products of the reaction are measured by reading the absorbance at 475 nm.

T1 sequence (C7FF04 1-392): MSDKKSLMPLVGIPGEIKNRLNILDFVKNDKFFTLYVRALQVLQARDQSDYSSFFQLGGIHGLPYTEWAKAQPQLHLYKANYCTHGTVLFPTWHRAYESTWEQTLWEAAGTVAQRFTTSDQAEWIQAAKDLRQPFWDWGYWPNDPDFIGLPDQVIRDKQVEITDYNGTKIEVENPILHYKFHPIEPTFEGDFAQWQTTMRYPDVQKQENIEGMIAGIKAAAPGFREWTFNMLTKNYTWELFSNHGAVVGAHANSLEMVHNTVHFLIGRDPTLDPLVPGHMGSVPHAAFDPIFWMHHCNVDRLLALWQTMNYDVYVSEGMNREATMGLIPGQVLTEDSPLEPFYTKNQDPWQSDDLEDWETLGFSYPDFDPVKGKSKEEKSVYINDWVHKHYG

Row | SMILES | IC50 [1] [µM] | IC50 (Mushroom tyrosinase [2]) [µM] | mode of tyrosinase inhibition (Mushroom tyrosinase [3]) | IC50 (Mushroom tyrosinase [2]; L-Tyrosine as substrate, read-out: IC50, tyrosinase activity, single compounds) [µM] | IC50 (Mushroom tyrosinase [4]) [µM] | IC50 [5] [µM]
1 | CC1(C)C=Cc2c(ccc3c2OC[C@@H](c2ccc(O)cc2O)C3)O1 [GLA, Glabridin] | 458 ± 0.037 | 1.5 ± 0.03 | non-competitive | – | – | –
2 | Oc1cc(O)cc(/C=C/c2ccc(O)cc2O)c1 [OXYR, Oxyresveratrol] | 76 ± 0.07 | 2.5 ± 0.06 | non-competitive | – | – | –
3 | CC(c1ccccc1)c1ccc(O)cc1O (centres unmarked) [PR, Phenylethylresorcinol] | 119 ± 0.07 | – | non-competitive | 0.28 ± 0.03 | 35.5 ± 0.06 | –
4 | Oc1ccc(/C=C/c2cc(O)cc(O)c2)cc1 [RES, Resveratrol] | 142 ± 0.03 | 23 ± 0.05 | Kcat or suicide inhibitor | – | – | > 100
